The record followed here is ChEMBL document CHEMBL3286100, “Synthesis and β-glucuronidase inhibitory activity of 2-arylquinazolin-4(3H)-ones” (Bioorg Med Chem, 2014).

pIC50: −log10 of the molar value.

The test system of one assay is PC-3. Briefly: cells. Particulars: Homo sapiens, PC-3, 72 h.
The target in the next assay is T1, Beta-glucuronidase (Homo sapiens, UniProt P08236).
T1 sequence (P08236 whole entry): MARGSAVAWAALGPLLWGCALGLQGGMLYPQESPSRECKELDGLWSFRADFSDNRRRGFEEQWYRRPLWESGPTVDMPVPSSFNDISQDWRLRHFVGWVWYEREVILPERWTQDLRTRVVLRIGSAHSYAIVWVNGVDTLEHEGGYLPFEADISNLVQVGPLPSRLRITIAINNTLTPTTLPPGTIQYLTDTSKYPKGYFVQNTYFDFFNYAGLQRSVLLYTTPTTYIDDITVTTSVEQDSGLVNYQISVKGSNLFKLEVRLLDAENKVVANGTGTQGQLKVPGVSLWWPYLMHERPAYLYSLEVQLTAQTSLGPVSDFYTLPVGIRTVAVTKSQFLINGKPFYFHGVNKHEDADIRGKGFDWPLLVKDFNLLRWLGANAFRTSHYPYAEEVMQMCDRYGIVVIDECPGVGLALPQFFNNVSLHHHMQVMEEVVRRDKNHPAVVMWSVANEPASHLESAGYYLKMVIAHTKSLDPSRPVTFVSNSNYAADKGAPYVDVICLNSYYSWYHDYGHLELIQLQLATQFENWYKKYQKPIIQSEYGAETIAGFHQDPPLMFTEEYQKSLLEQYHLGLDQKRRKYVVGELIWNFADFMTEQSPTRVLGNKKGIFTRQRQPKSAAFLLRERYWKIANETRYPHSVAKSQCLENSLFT
The experiment in a line: Inhibition of beta-glucuronidase activity (unknown origin) assessed as p-nitrophenol formation after 30 mins using p-nitrophenyl-beta-D-glucuronide as substrate by spectrophotometry.

Broadly, the pIC50 is −log10 of the IC50, conventionally taken in molar units.

Description for PC-3: Cytotoxicity against human PC3 cells after 72 hrs by MTT assay

Regarding `O=c1[nH]c(-c2ccc(Cl)cc2Cl)nc2ccccc12`, the pIC50 in the assay on PC-3 was < 4.52. For the compound `COc1cc(-c2nc3ccccc3c(=O)[nH]2)cc(OC)c1OC`, the figures for the pIC50 on Beta-glucuronidase and in the assay with PC-3 were 3.92 and < 4.52, respectively. For `CCOc1ccccc1-c1nc2ccccc2c(=O)[nH]1`, in the assay on PC-3, the pIC50 was < 4.52.

In the case of `CN(C)c1ccc(-c2nc(O)c3ccccc3n2)cc1`, the pIC50 is 5.26 at Beta-glucuronidase and < 4.52 in the assay on PC-3. Consider `CCOc1ccc(-c2nc3ccccc3c(=O)[nH]2)cc1`, for which the pIC50 in the assay with PC-3 is < 4.52. Consider `O=c1[nH]c(-c2ccc(O)cc2)nc2ccccc12`, for which the pIC50 on Beta-glucuronidase is 4.65; in the assay with PC-3 it was < 4.52. As to `O=c1[nH]c(-c2c(Cl)cccc2Cl)nc2ccccc12`, the pIC50 with PC-3 was < 4.52. Regarding `Cc1ccc(-c2nc3ccccc3c(=O)[nH]2)cc1`, the pIC50 at Beta-glucuronidase is 3.76; in the assay on PC-3, < 4.52. For `O=c1[nH]c(-c2cccc(O)c2)nc2ccccc12`, in that order: 3.70 and < 4.52.

For the compound `COc1ccc(-c2nc3ccccc3c(=O)[nH]2)cc1O`, the pIC50 was 5.55 at Beta-glucuronidase and < 4.52 in the assay on PC-3. For the compound `COc1ccc(-c2nc(O)c3ccccc3n2)cc1OC`, the pIC50 in the assay on PC-3 is < 4.52. Turning to `O=c1[nH]c(-c2ccc([N+](=O)[O-])cc2)nc2ccccc12`, the pIC50 is 4.70 on Beta-glucuronidase and < 4.52 in the assay with PC-3. For `COc1ccc(-c2nc3ccccc3c(=O)[nH]2)cc1`, in that order: 5.96 and < 4.52. For the compound `O=c1[nH]c(-c2c(O)cccc2Br)nc2ccccc12`, the pIC50 in the assay on PC-3 is < 4.52. For `O=c1[nH]c(-c2ccccc2[N+](=O)[O-])nc2ccccc12`, the pIC50 in the assay with PC-3 was < 4.52. As for `CCOc1cc(-c2nc3ccccc3c(=O)[nH]2)ccc1O`, in the assay with PC-3, the pIC50 is < 4.52. On the same count and under the same terms, to `O=c1[nH]c(-c2ccc(O)c(O)c2)nc2ccccc12` belongs < 4.52.

`O=c1[nH]c(-c2ccc(Cl)cc2)nc2ccccc12`: the pIC50 in the assay on PC-3 was < 4.52. For `O=c1[nH]c(-c2cccc([N+](=O)[O-])c2)nc2ccccc12`, the pIC50 on Beta-glucuronidase is 4.30; in the assay with PC-3, < 4.52. As for `O=c1[nH]c(-c2ccccc2O)nc2ccccc12`, the pIC50 at Beta-glucuronidase is 5.00; in the assay on PC-3, < 4.52.

Consider `O=c1[nH]c(-c2cc(O)ccc2O)nc2ccccc12`, for which, in the assay on PC-3, the pIC50 is < 4.52.

Turning to `O=c1[nH]c(-c2ccccc2Cl)nc2ccccc12`, the negative-log IC50 (pIC50) in the assay with PC-3 is < 4.52. The same measure, in the same setting: for `COc1ccc(O)c(-c2nc3ccccc3c(=O)[nH]2)c1` the value was < 4.52. The same measure, in the same setting: to `COc1cccc(-c2nc3ccccc3c(=O)[nH]2)c1O` belongs < 4.52.
